Assay results as given in US9605013B2, “Derivatives of hemin with antibacterial and antiviral activity” (OBSCHESTVO S OGRANICHENNOI OTVETSTVENNOSTIYU …, priority 2011, dated 2017).

How the values were obtained:
Assay type in all cases: cell-based
Escherichia coli 4300 = assay: Antibacterial specific activity, twofold dilutions, visual growth evaluation; details: E. coli 4300; 36° C., 24 hours
[1] = test system: Vancomycin-resistant Enterococcus faecium 569; assay: as above; details: Vancomycin-resistant E. faecium 569; 36° C., 24 hours
Summary of the method: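 Staphylococci cultured on Trypticase Soy Agar and enterococci on Columbia Agar; inoculum 5×10^5 CFU/ml. Compound twofold dilutions were mixed with culture, incubated 24 hours at 36° C., and growth was scored visually; MIC was the last inhibitory dilution.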

[2] = test system: Herpes Simplex Virus type 1 strain EC; assay: Antiviral activity, virus cytopathogenic action in Vero cells; set-up: key: 0: CPA (cytopathogenic action) is not detected; 1: up to 25% virus-infected monolayer; from 25% to 50%; 3: from 50% to 75%; 4: from 75% to 100%; details: 48 hours
[3] = HSV-1, virus dose 1, concentration 0.1 μM
[4] = HSV-1, virus dose 1, concentration 1 μM
[5] = HSV-1, virus dose 1, concentration 10 μM
[6] = HSV-1, virus dose 10, concentration 0.1 μM
[7] = HSV-1, virus dose 10, concentration 1 μM
[8] = HSV-1, virus dose 10, concentration 10 μM
[9] = HSV-1, virus dose 100, concentration 0.1 μM
[10] = HSV-1, virus dose 100, concentration 1 μM
[11] = HSV-1, virus dose 100, concentration 10 μM

Row | Compound | MIC (Escherichia coli 4300) [µM] | MIC [1] [µM] | manifestation of the virus CPA [2, 3] | manifestation of the virus CPA [2, 4] | manifestation of the virus CPA [2, 5] | manifestation of the virus CPA [2, 6] | manifestation of the virus CPA [2, 7] | manifestation of the virus CPA [2, 8] | manifestation of the virus CPA [2, 9] | manifestation of the virus CPA [2, 10] | manifestation of the virus CPA [2, 11]
1 | 6,7-bis-(Amide N^α-Glycyl)-Protohemin (IX) [IV] | >50.0 | 50 | 1 (up to 25% virus-infected monolayer) | 1 (up to 25% virus-infected monolayer) | 0^1 | 2 (from 25% to 50%) | 2 (from 25% to 50%) | 0^1 | 3 (from 50% to 75%) | 3 (from 50% to 75%) | 2^1 (from 25% to 50%)
2 | 6,7-bis-[(Diamide N^α-L-Arginyl)-L-glutamyl]-Protohemin (IX) | 16.6 | 6.25 | – | – | – | – | – | – | – | – | –
3 | C=CC1=C(C)c2cc3[n-]c(cc4[n-]c(cc5nc(cc1n2)C(C)=C5C=C)c(C)c4CCC(=O)N[C@@H](CCCNC(=N)N)C(N)=O)c(CCC(=O)N[C@@H](CCCNC(=N)N)C(N)=O)c3C.[Cl-].[Fe+3] [II, 6,7-bis-(Amide N^α-Arginyl)-Protohemin (IX)] | 41.6 | 3.12 | – | – | – | – | – | – | – | – | –
4 | C=CC1=C(C)c2cc3[n-]c(cc4[n-]c(cc5nc(cc1n2)C(C)=C5C=C)c(C)c4CCC(=O)N[C@@H](CO)C(N)=O)c(CCC(=O)N[C@@H](CO)C(N)=O)c3C.[Cl-].[Fe+3] [V, 6,7-bis-(Amide N^α-Seryl)-Protohemin (IX)] | >50.0 | 25 | – | – | – | – | – | – | – | – | –
5 | C=CC1=C(C)c2cc3[n-]c(cc4[n-]c(cc5nc(cc1n2)C(C)=C5C=C)c(C)c4CCC(=O)N[C@@H](CO)C(=O)O)c(CCC(=O)N[C@@H](CO)C(=O)O)c3C.[Cl-].[Fe+3] [VI, 6,7-bis-(N^α-Seryl]-Protohemin (IX)] | >50.0 | >50.0 | 0^1 | 0^1 | 0^1 | 2 (from 25% to 50%) | 2 (from 25% to 50%) | 2^ (from 25% to 50%) | 3 (from 50% to 75%) | 3.3 scores | 3 (from 50% to 75%)
